# Assay results reported in patent publication EP2170322B1, “METHODS OF MODIFYING AMYLOID ß OLIGOMERS USING NON-[…] COMPOUNDS” (Acumen Pharmaceuticals, Inc., priority 2007, dated 2009).
# Target: T1, Aβ1-42 (Homo sapiens, UniProt P05067)
# T1 construct: containing 0.2 µM FITC-Aβ(1-42) and 0.8 µM Aβ(1-42)
# Test: FRET assay of Aβ1-42 oligomer (ADDL) assembly inhibition
# Format: biochemical
# Details: for IC50: assay of Example 1, 0.2 µM FITC-Aβ(1-42) and 0.8 µM Aβ(1-42), 37°C, six concentrations from about 30 µM to about 0.05 µM
# From the text: Fluorescence (or Förster) Resonance Energy Transfer (FRET) is a distance-dependent, non-radiative transfer of energy in which the de-excitation of one fluorophore (donor) is coupled to excitation of another fluorophore (acceptor). FRET occurs if (1) the quantum of energy emitted by a donor fluorophore corresponds to an acceptor fluorophore's excitation energy, (2) the orientations of donor and acceptor transition dipoles are nearly parallel and (3) the donor fluorescent emission spectrum overlaps the acceptor absorption spectrum. In this assay, assembly of Aβ1-42 oligomer formation is monitored by FRET using N-terminal conjugates of fluorescein-Aβ1-42 as both the donor and acceptor fluorophore (fluorescein-fluorescein Ro~ 45 Ǻ). Aβ1-42 monomers assembling into oligomeric species results in a decrease of fluorescence as the fluorescein labeled Aβ1-42 peptides become proximal to each other and FRET efficiency increases. Inhibition of Aβ1-42 assembly is observed as the absence or attenuation of fluorescein quenching. FRET and FP assays are performed in 384-well Coming Non-Binding Surface, black, opaque microtiter plates, and the assay buffer consists of 50 mM MOPS-Tris (pH 8.0) with 100 mM MgCl2. The assay volume, containing 0.2 µM FITC-Aβ(1-42) and 0.8 µM Aβ(1-42), is 50 µl and the temperature is 37°C. ADDL assembly is monitored on a Tecan GENios Pro plate reader, exciting at a wavelength of 485 nm and detecting emission at a wavelength of 515 nm. Kinetic traces are collected by recording fluorescence intensity and polarization readings every five minutes over about a three to about a six-hour time course. […] Positive control reactions contain all buffer components in the absence of added small molecule or antibody reagents. To test for ADDL assembly inhibition, the non-peptidic compound was incubated with the peptide mixture at six concentrations from about 30 µM decreasing to about 0.05 µM.
# T1 sequence (P05067 672-713 limits assumed): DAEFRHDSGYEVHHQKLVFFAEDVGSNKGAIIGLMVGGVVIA
Structure (SMILES),IC50,"inhibition of Aβ1-42 monomer assembly into Aβ oligomers (standard FRET assay conditions of Example 1, comparative example, FIG 2)","inhibition of Aβ1-42 oligomer assembly (Test Compound A ranging from 0.05 to 3 mM, FIG. 1)"
"COc1ccccc1NC(=O)C(=O)N1N=C(CC(C)C)CC1(O)C(F)(F)F (centres unmarked) [Compound 5, 2-(5-hydroxy-3-isobutyl-5-(trifluoromethyl)-4,5-dihydro-1H-pyrazol-1-yl)-N-(2-methoxyphenyl)-2-oxoacetamide]",3.2 µM,–,–
"NCCCS(=O)(=O)O [Alzhemed, 3-amino-1-propanesulfonic acid, reference compound]",–,inability,–
"COc1ccccc1NC(=O)C(=O)N/N=C(/CC(=O)c1cccs1)C(F)(F)F [Compound 1, N-(2-Methoxy-phenyl)-2-oxo-2-{N'-[3-oxo-3-thiophen-2-yl-1-trifluoromethyl-prop-(Z)-ylidene]-hydrazino}-acetamide]",3.9 µM,–,–
"CCOC(=O)c1c(NC(=O)C(=O)N/N=C/c2cccc(OC)c2O)sc2c1CCC(C)C2 (centres unmarked) [Compound 2, 2-{[1-(2-Hydroxy-3-methoxy-phenyl)-meth-(E)-ylidene-hydrazinooxalyl]-amino}-6-methyl-4,5,6,7-tetrahydro-benzo[b]thiophene-3-carboxylic acid ethyl ester]",3.5 µM,–,–
"CCOC(=O)c1c(NC(=O)C(=O)N/N=C/c2ccccc2O)sc2c1CCC(C)C2 (centres unmarked) [Compound 4, 2-{[1-(2-Hydroxyphenyl)-meth-(E)-ylidene-hydrazinooxalyl]-amino}-6-methyl-4,5,6,7-tetrahydro-benzo[b]thiophene-3-carboxylic acid ethyl ester]",1.1 µM,–,dose dependent inhibition
"CCOC(=O)c1c(NC(=O)C(=O)N/N=C/c2c(O)ccc3ccccc23)sc2c1CCC(C)C2 (centres unmarked) [Compound 3, 2-{[1-(2-Hydroxynaphthalen-1-yl)-meth-(E)-ylidene-hydrazinooxalyl]-amino}-6-methyl-4,5,6,7-tetrahydro-benzo[b]thiophene-3-carboxylic acid ethyl ester]",4.4 µM,–,–
O=C(N/N=C/c1ccc2ccccc2c1O)c1ccccc1O [Compound 6],3.8 µM,–,–
